Laboratory results published in PubChem BioAssay AID1963972 (Molecular Pharmacology Branch, DTP, NCI, 2024).

Tested on: 945468-187-T-J2-PDC spheroids viability
Experiment: Anticancer human tumor 945468-187-T-J2-PDC patient-derived rectal carcinoma cell line growth inhibition [PI3K]
Conditions: spheroids with HUVEC and MSC; for IC50: curve of first compound; for viability, T/C: stronger effect = lower value
From the text: Combinatorial screen of targeted agents with the PI3K inhibitors inavolisib, alpelisib, duvelisib, and copanlisib in multi-cell type tumor spheroids
A high-throughput screen of multi-cell type tumor spheroids was designed to identify active combinations of targeted small molecules and PI3K pathway inhibitors. Complex spheroids include a stromal component modeled by human endothelial cells (HUVEC) and fibroblasts modeled by human mesenchymal stem cells (MSCs). The concentration ranges selected for each drug and investigational agent were based upon clinically achievable concentrations if the clinical Cmax of the agent was known.
Compounds. The drugs and investigational agents: inavolisib (NSC800729), alpelisib (NSC765974), duvelisib (NSC772469), copanlisib (NSC816437), ipatasertib (NSC767898), afuresertib (NSC778305), talazoparib (NSC767125), sapanisertib (NSC764658), selumetinib (NSC741078), tovorafenib (DAY101, NSC766906), vemurafenib (NSC761431), ravoxertinib (NSC781343), sotorasib (NSC818433), MRTX1133 (NSC 836407), abemaciclib (NSC 768073), palbociclib (NSC758247), venetoclax (NSC 766270), SY5609 (NSC837396), enzalutamide (NSC755605), and darolutamide (NSC825331), were obtained from the National Cancer Institute (NCI) Developmental Therapeutics Program Chemical Repository. The FDA-approved anticancer drug set is available from the NCI Developmental Therapeutics Program. […] The stock solutions were prepared in dimethyl sulfoxide (DMSO, Sigma-Aldrich, St. Louis, MO, cat. D2650) at 800-fold the tested concentration and stored at -70 degrees C prior to their use. All drugs and investigational agents were tested over a range starting from a high concentration at or near the clinical Cmax and decreasing in half-log increments. If the clinical Cmax for an agent had not been determined, the highest concentration tested was 10 microM.
Cell Culture. All cells were maintained in an incubator at 37 degrees C and 5% CO2 with 95% humidity. The PDC lines were cultured according to standard operating procedures established by the NCI PDMR (https://pdmr.cancer.gov/sops/default.htm). All PDCs were thawed and cultured in Matrigel-coated flasks prepared with a working solution of 1X Ham's F-12 nutrient mix, without supplementation (Invitrogen, Waltham, MA, cat. 11765054), 100 U/mL penicillin-streptomycin (Invitrogen, cat. 15140122), and 2.5% Matrigel (Corning Inc., Corning, NY, cat. 354248) for the first three passages. The 354836-022-R-J1-PDC, 475296-252-R-J1-PDC, and 997726-040-R-J2-PDC lines were cultured in 6A media, which includes advanced DMEM/F-12 (Thermo Fisher Scientific, cat. 12634028), 10 mM HEPES (Thermo Fisher Scientific, cat. 15630080), 1X GlutaMAX supplement (Thermo Fisher Scientific, cat. 35050061), 0.1 mg/mL primocin (InvivoGen, San Diego, CA, cat. ant-pm-2), 10% defined fetal bovine serum, heat inactivated (HyClone Laboratories Inc., Logan, UT, cat. SH30070.03HI), 50% L-WRN conditioned media (ATCC, cat. CRL-3276), 1.25 mM N-Acetyl-L-cysteine (Sigma-Aldrich, cat. A9165), 10 mM nicotinamide (Sigma-Aldrich, cat. N0636), 1X B-27 supplement (Thermo Fisher Scientific, cat. 17504044), 1X N-2 supplement (Thermo Fisher Scientific, cat. 17502048), and 10 microM Y-27632 dihydrochloride (Tocris Bioscience, Bristol, United Kingdom, cat. 1254). The 624824-186-R-J2-PDC line was cultured in 6C/Colon 1B media, which includes all 6A media components plus 50 ng/mL human EGF recombinant protein (Thermo Fisher Scientific, cat. PHG0311). […]

[1] = second compound 0.00316 µM, first compound 0.00316 µM
[2] = second compound 0.00316 µM, first compound 0.01 µM
[3] = second compound 0.00316 µM, first compound 0.0316 µM
[4] = second compound 0.00316 µM, first compound 0.1 µM
[5] = second compound 0.01 µM, first compound 0.00316 µM
[6] = second compound 0.01 µM, first compound 0.01 µM
[7] = second compound 0.01 µM, first compound 0.0316 µM
[8] = second compound 0.01 µM, first compound 0.1 µM
[9] = second compound 0.0316 µM, first compound 0.00316 µM
[10] = second compound 0.0316 µM, first compound 0.01 µM
[11] = second compound 0.0316 µM, first compound 0.0316 µM
[12] = second compound 0.0316 µM, first compound 0.1 µM
[13] = second compound 0.1 µM, first compound 0.00316 µM
[14] = second compound 0.1 µM, first compound 0.01 µM
[15] = second compound 0.1 µM, first compound 0.0316 µM
[16] = second compound 0.1 µM, first compound 0.1 µM
[17] = second compound 0.316 µM, first compound 0.00316 µM
[18] = second compound 0.316 µM, first compound 0.01 µM
[19] = second compound 0.316 µM, first compound 0.0316 µM
[20] = second compound 0.316 µM, first compound 0.1 µM
[21] = second compound 1 µM, first compound 0.00316 µM
[22] = second compound 1 µM, first compound 0.01 µM
[23] = second compound 1 µM, first compound 0.0316 µM
[24] = second compound 1 µM, first compound 0.1 µM
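Also: spheroids exposed to compounds for seven days before reading.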

## CCN1CCN(Cc2ccc(Nc3ncc(F)c(-c4cc(F)c5nc(C)n(C(C)C)c5c4)n3)nc2)CC1 + CC(Nc1ccc2c(c1)OCCn1cc(N3C(=O)OCC3C(F)F)nc1-2)C(N)=O
Second compound 0.00316 µM
  IC50: > 1000 nM
Second compound 0.01 µM
  IC50: > 1000 nM
Second compound 0.0316 µM
  IC50: > 1000 nM
Second compound 0.1 µM
  IC50: > 1000 nM
Second compound 0.316 µM
  IC50: 712 nM
Second compound 1 µM
  IC50: 332 nM
[1]
  viability, T/C: 113%
[2]
  viability, T/C: 93.7%
[3]
  viability, T/C: 88.2%
[4]
  viability, T/C: 101%
Second compound 0.00316 µM, first compound 0.316 µM
  viability, T/C: 82.7%
Second compound 0.00316 µM, first compound 1 µM
  viability, T/C: 73.2%
[5]
  viability, T/C: 95.2%
[6]
  viability, T/C: 96.7%
[7]
  viability, T/C: 90.9%
[8]
  viability, T/C: 102%
Second compound 0.01 µM, first compound 0.316 µM
  viability, T/C: 143%
Second compound 0.01 µM, first compound 1 µM
  viability, T/C: 71.3%
[9]
  viability, T/C: 99%
[10]
  viability, T/C: 95.1%
[11]
  viability, T/C: 95.2%
[12]
  viability, T/C: 117%
Second compound 0.0316 µM, first compound 0.316 µM
  viability, T/C: 111%
Second compound 0.0316 µM, first compound 1 µM
  viability, T/C: 74.7%
[13]
  viability, T/C: 91.8%
[14]
  viability, T/C: 91.3%
[15]
  viability, T/C: 94.3%
[16]
  viability, T/C: 79.3%
Second compound 0.1 µM, first compound 0.316 µM
  viability, T/C: 94.1%
Second compound 0.1 µM, first compound 1 µM
  viability, T/C: 59.1%
[17]
  viability, T/C: 78.2%
[18]
  viability, T/C: 79.8%
[19]
  viability, T/C: 75.6%
[20]
  viability, T/C: 71.1%
Second compound 0.316 µM, first compound 0.316 µM
  viability, T/C: 83.8%
Second compound 0.316 µM, first compound 1 µM
  viability, T/C: 38.4%
[21]
  viability, T/C: 79.7%
[22]
  viability, T/C: 67.2%
[23]
  viability, T/C: 83.4%
[24]
  viability, T/C: 82.4%
Second compound 1 µM, first compound 0.316 µM
  viability, T/C: 51%
Second compound 1 µM, first compound 1 µM
  viability, T/C: 28.2%

## CC(C)n1nc(-c2ccc3oc(N)nc3c2)c2c(N)ncnc21 + COc1c(OCCCN2CCOCC2)ccc2c3n(c(=NC(=O)c4cnc(N)nc4)nc12)CCN3
Second compound 0.00316 µM
  IC50: > 100 nM
Second compound 0.01 µM
  IC50: > 100 nM
Second compound 0.0316 µM
  IC50: 60.5 nM
Second compound 0.1 µM
  IC50: 20.4 nM
Second compound 0.316 µM
  IC50: < 0.316 nM
Second compound 1 µM
  IC50: < 0.316 nM
Second compound 0.00316 µM, first compound 0.000316 µM
  viability, T/C: 82.4%
Second compound 0.00316 µM, first compound 0.001 µM
  viability, T/C: 83.8%
[1]
  viability, T/C: 81.7%
[2]
  viability, T/C: 84.3%
[3]
  viability, T/C: 73.6%
[4]
  viability, T/C: 61.1%
Second compound 0.01 µM, first compound 0.000316 µM
  viability, T/C: 120%
Second compound 0.01 µM, first compound 0.001 µM
  viability, T/C: 109%
[5]
  viability, T/C: 80.7%
[6]
  viability, T/C: 82.7%
[7]
  viability, T/C: 66.6%
[8]
  viability, T/C: 66.1%
Second compound 0.0316 µM, first compound 0.000316 µM
  viability, T/C: 77.1%
Second compound 0.0316 µM, first compound 0.001 µM
  viability, T/C: 85.8%
[9]
  viability, T/C: 116%
[10]
  viability, T/C: 86%
[11]
  viability, T/C: 79.1%
[12]
  viability, T/C: 27.4%
Second compound 0.1 µM, first compound 0.000316 µM
  viability, T/C: 76.2%
Second compound 0.1 µM, first compound 0.001 µM
  viability, T/C: 76.2%
[13]
  viability, T/C: 61.5%
[14]
  viability, T/C: 75.6%
[15]
  viability, T/C: 36.2%
[16]
  viability, T/C: 16.7%
Second compound 0.316 µM, first compound 0.000316 µM
  viability, T/C: 36.5%
Second compound 0.316 µM, first compound 0.001 µM
  viability, T/C: 31.8%
[17]
  viability, T/C: 26.5%
[18]
  viability, T/C: 25.4%
[19]
  viability, T/C: 17.6%
[20]
  viability, T/C: 10.9%
Second compound 1 µM, first compound 0.000316 µM
  viability, T/C: 20.2%
Second compound 1 µM, first compound 0.001 µM
  viability, T/C: 22.1%
[21]
  viability, T/C: 17.7%
[22]
  viability, T/C: 13.8%
[23]
  viability, T/C: 12.1%
[24]
  viability, T/C: 11.3%
